Source: patent US20120039905A1, “The Role of p110 delta Signaling in Morbidity and Lung Pathology Induced by Influenza Virus Infection” (priority 2009, published 2012)
Entries after “also recorded” stand apart in the source; their conditions may differ.

Assays:
[1] = tested on: H7N7 A/Equine/London/1416/73 influenza virus strain; design: species or system mice; conditions: mouse, in vivo
[2] = tested on: influenza virus strain PR8; type: cell-based

Cc1ccccc1-n1c(Cn2cnc3c(N)ncnc32)nc2cccc(C)c2c1=O [IC87114]
survival after lethal challenge [1]: increased survival; also recorded: protects mice lethally challenged | reduction of viral mRNA production compared to untreated cells [2]: ~25 fold | influenza virus replication (specific RT-PCR) ([2]; 100 μM): inhibits influenza virus replication
